Molecular target: T1, Androgen Receptor (AR) (Homo sapiens, UniProt P10275)
T1 sequence (P10275 1-920): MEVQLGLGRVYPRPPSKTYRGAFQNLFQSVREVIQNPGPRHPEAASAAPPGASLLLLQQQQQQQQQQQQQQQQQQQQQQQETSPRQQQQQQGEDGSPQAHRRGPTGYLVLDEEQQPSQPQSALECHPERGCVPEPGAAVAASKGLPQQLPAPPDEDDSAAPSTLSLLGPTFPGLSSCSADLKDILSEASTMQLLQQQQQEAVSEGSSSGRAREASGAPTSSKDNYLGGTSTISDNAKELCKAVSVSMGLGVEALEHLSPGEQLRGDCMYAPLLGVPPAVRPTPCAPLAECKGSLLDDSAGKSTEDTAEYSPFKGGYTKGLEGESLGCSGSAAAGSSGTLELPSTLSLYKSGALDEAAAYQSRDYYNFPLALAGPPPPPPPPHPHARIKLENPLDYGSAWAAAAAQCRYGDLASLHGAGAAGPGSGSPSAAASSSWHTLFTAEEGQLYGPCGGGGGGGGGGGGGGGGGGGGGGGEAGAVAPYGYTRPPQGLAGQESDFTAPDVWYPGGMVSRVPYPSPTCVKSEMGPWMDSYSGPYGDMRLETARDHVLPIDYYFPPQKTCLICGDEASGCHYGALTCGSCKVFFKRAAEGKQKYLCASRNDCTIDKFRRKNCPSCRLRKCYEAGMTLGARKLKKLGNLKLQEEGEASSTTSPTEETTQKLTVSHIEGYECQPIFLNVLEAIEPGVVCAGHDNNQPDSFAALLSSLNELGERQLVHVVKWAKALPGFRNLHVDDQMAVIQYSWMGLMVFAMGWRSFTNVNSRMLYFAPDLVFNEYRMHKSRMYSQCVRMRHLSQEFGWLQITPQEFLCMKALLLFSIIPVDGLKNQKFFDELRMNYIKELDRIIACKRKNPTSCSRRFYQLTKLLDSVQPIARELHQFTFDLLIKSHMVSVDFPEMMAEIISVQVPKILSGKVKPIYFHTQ
Test: Measurement of AR protein degradation in VCaP cells by Western blotting
Format: cell-based
Set-up: endogenous in cells; host or cells: VCaP
Conditions: VCaP, 20 h, read-out: AR degradation in VCaP cells (%)
Method: The amount of AR protein present in LNCaP or VCaP cells was measured after treating them with the synthesized compound. The amount of AR protein was measured using Western blotting. The protocol for the experiments using LNCaP or VCaP cells was as follows.
[Culture] LNCaP cells were resuspended in RPMI1640 medium + HEPES (Hyclone, SH30255.01), 10% FBS (Hyclone, SV30207.02), and 1% Penicillin-streptomycin (Welgene, LS 202-02). 3 x 10^5 cells/mL were seeded in 12-well plates (1 mL per well) and cultured for 3 days. VCaP cells were resuspended in IMDM MEDIUM (Hyclone, SH30228.01), 20% FBS (Hyclone, SV30207.02), and 1% Penicillin-streptomycin (Welgene, LS 202-02), seeded at 9 x 10^5/mL in 1 mL per 12-well plate, and cultured for 3 days.
[Compound Treatment] 10 µL of 100x stock (e.g., 0.1, 1, 10 µM) compound solution at the final compound treatment concentration (e.g., 0.001, 0.01, 0.1 µM) was added to each well in 1 mL media, and cells were harvested after 20 hours. For DC50 measurement, 100x stock (0.01, 0.1, 1, 10, 100, 1000 µM) compound solutions at the final compound treatment concentration (0.0001, 0.001, 0.01, 0.1, 1, 10 µM) were used.
[Cell lysis] The cell pellet was suspended using 1% SDS lysis buffer (50 mM Tris, 1 mM EDTA, 1% SDS, pH 8.0, 0.5 mM PMSF, 1x Protease/Phosphatase inhibitor Cocktail (Cell Signaling Technology, 5872S)), and sonication (70% AMP, 10 cycles (30 sec ON/59 sec OFF)) was performed. After centrifugation at 4°C and 20,000 g for 20 minutes, the cell lysate was obtained and transferred to a new tube.
[Protein Quantification] A BCA protein assay (SMART™ BCA Protein Assay Kit, iNtRON Biotechnology, 21071) was performed using a 96-well microplate. 5 µL of cell lysate and 5 µL of 1% SDS lysis buffer were added to each well of the 96-well plate, followed by an additional 200 µL of BCA reagent (Reagent A: Reagent B = 50:1). The wells were incubated at 37°C for 30 minutes and cooled to room temperature for 10 minutes. After shaking for 10 seconds, the absorbance was measured at a wavelength of 562 nm. The unknown protein concentration was determined using a BSA standard curve (0, 0.125, 0.25, 0.5, 1, 2 mg/mL). Western blotting samples were prepared by mixing cell lysate, 1% SDS lysis buffer, 4x NuPAGE™ LDS Sample buffer (Invitrogen, NP0008), and 10X NuPAGE™ Sample Reducing Agent (Invitrogen, NP0009) and boiling at 70°C for 10 minutes.
[Electrophoresis] 10 µg of protein sample was loaded into each well of a NuPAGE™ 4 to 12%, Bis-Tris, 1.0 mm Mini Protein Gel, 15-well, 17-well, or 26-well (Invitrogen, NP0323BOX, NP0329BOX, or WG1403BOX) and electrophoresed for 40 minutes using NuPAGE™MES SDS Running Buffer (Invitrogen, NP0002) at 200 V (constant V).
[Transfer] Transfer was performed for 15 or 18 minutes using the electrophoresed gel and the Trans-Blot® Turbo™ Transfer Starter System (Bio-RAD, #17001918, Mini Nitrocellulose) at 1.3 A (constant A) and 25 V (limit V). To confirm protein transfer, 15 mL of Ponceau S solution (Sigma, P7170-1L) was used to stain for 1 minute, and then washed to check the degree of transfer.
[Blocking] The membrane for AR and GAPDH detection was blocked with 5% skim milk/0.2% TBST (Skim milk: BD, 232100/ 20X TBS: Biosesang, TR2008-100-00/ 10% Tween 20 Solution: Bio-RAD, #161-0781) for 45 minutes.
[Antibodies and Detection] Primary AR antibody (Androgen Receptor: CST, 5153S) was mixed with 5% skim milk/0.2% TBST at a ratio of 1:1,000 and reacted at room temperature for 3 hours or at 4°C overnight. Primary GAPDH antibody (CST, 2118S) was mixed with 5% skim milk/0.2% TBST at a ratio of 1:2,000 and reacted at room temperature for 3 hours or at 4°C overnight. Afterwards, TBST (0.2% Tween 20) was used for washing three times every 5 minutes. Secondary antibody to AR antibody, Anti-rabbit IgG, HRP-linked Antibody (CST, 7074S), was mixed with 5% skim milk/0.2% TBST at a ratio of 1:5,000 and reacted at room temperature for 45 minutes. […]

SMILES	Dmax at 0.01 µM	Dmax at 0.1 µM
N#Cc1ccc(N2CCC(C(=O)Nc3ccc(OC4CCN(CC5CCN(c6ccc(N[C@@H]7CCC(=O)NC7=O)cc6F)CC5)CC4)cn3)CC2)cc1Cl [Example 10, (R)-1-(3-chloro-4-cyanophenyl)-N-(5-((1-((1-(4-((2,6-dioxopiperidin-3-yl)amino)-2-fluorophenyl)piperidin-4-yl)methyl)piperidin-4-yl)oxy)pyridin-2-yl)piperidine-4-carboxamide]	85%	99%
N#Cc1ccc(N2CCC(C(=O)Nc3ccc(OC4CCN(CC5CCN(c6ccc(NC7CCC(=O)NC7=O)cc6F)CC5)CC4)cn3)CC2)cc1Cl (stereo not shown) [Example 8, 1-(3-chloro-4-cyanophenyl)-N-(5-((1-((1-(4-((2,6-dioxopiperidin-3-yl)amino)-2-fluorophenyl)piperidin-4-yl)methyl)piperidin-4-yl)oxy)pyridin-2-yl)piperidine-4-carboxamide]	94%	99%
